In ChEMBL document CHEMBL1201862, “PubChem BioAssay data set” (2004):
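A five-concentration, 48-hour dose response in 96-well plates underlies each endpoint, interpolated linearly between surrounding concentrations. GI50: concentration for 50% inhibition of growth.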 Activity calls are given as the source filed them. Cut-off read from the data, not from the text of the source: active = GI50 up to about 1.1 µM and inactive = higher.

Legend:
Assay in all cases: growth of human tumour cells (NCI), 48 h
CCRF-CEM = system: CCRF-CEM
EKVX = system: EKVX
HCC 2998 = system: HCC 2998
HOP-92 = system: HOP-92
LOX IMVI = system: LOX IMVI
MOLT-4 = system: MOLT-4
NCI-H460 = system: NCI-H460
NCI-H522 = system: NCI-H522
NCI/ADR-RES = system: NCI/ADR-RES
OVCAR-3 = system: OVCAR-3
OVCAR-5 = system: OVCAR-5
OVCAR-8 = system: OVCAR-8
PC-3 = system: PC-3
RXF 393 = system: RXF 393
SF-295 = system: SF-295
SK-MEL-28 = system: SK-MEL-28
SN12C = system: SN12C
SW-620 = system: SW-620
U-251 = system: U-251
UACC-62 = system: UACC-62

SMILES | GI50 (CCRF-CEM) | GI50 (EKVX) | GI50 (HCC 2998) | GI50 (HOP-92) | GI50 (LOX IMVI) | GI50 (MOLT-4) | GI50 (NCI-H460) | GI50 (NCI-H522) | GI50 (NCI/ADR-RES) | GI50 (OVCAR-3) | GI50 (OVCAR-5) | GI50 (OVCAR-8) | GI50 (PC-3) | GI50 (RXF 393) | GI50 (SF-295) | GI50 (SK-MEL-28) | GI50 (SN12C) | GI50 (SW-620) | GI50 (U-251) | GI50 (UACC-62)
O=C(Cn1c(C(=O)c2ccccc2)nc2ccccc21)c1ccccc1 | > 100 µM (inactive) | > 100 µM (inactive) | > 100 µM (inactive) | 70.5 µM (inactive) | > 100 µM (inactive) | > 100 µM (inactive) | > 90.6 µM (inactive) | > 58.3 µM (inactive) | > 100 µM (inactive) | > 100 µM (inactive) | > 100 µM (inactive) | > 100 µM (inactive) | > 72.4 µM (inactive) | > 100 µM (inactive) | 67 µM (inactive) | > 100 µM (inactive) | > 100 µM (inactive) | 4.85 µM (inactive) | > 77.1 µM (inactive) | > 56.6 µM (inactive)
COc1ccc(OC)c2nc3c(C(=O)NCCN(C)C)cccc3nc12 | 2.29 µM (inactive) | 6.58 µM (inactive) | 5.77 µM (inactive) | 4.18 µM (inactive) | 1.78 µM (inactive) | 2.8 µM (inactive) | 3.24 µM (inactive) | 2.61 µM (inactive) | 5.25 µM (inactive) | 4.93 µM (inactive) | 10.3 µM (inactive) | 2.54 µM (inactive) | 4.04 µM (inactive) | 5.85 µM (inactive) | 3.99 µM (inactive) | 7.83 µM (inactive) | 4.11 µM (inactive) | 1.77 µM (inactive) | 4.21 µM (inactive) | 7.71 µM (inactive)
COC(=O)C(CCSC)NC(=O)Cc1ccc(C(=O)c2ccccc2)cc1 (stereo not given) | 42.5 µM (inactive) | 39.2 µM (inactive) | > 100 µM (inactive) | 41.8 µM (inactive) | 55.7 µM (inactive) | 55 µM (inactive) | 34.7 µM (inactive) | 57.8 µM (inactive) | 26.7 µM (inactive) | 67.6 µM (inactive) | > 100 µM (inactive) | 73.3 µM (inactive) | 56.8 µM (inactive) | > 100 µM (inactive) | 42.5 µM (inactive) | > 100 µM (inactive) | 50.1 µM (inactive) | 42.4 µM (inactive) | 34.6 µM (inactive) | 51.2 µM (inactive)
COc1ccc2nc3ccc(OC)cc3c([S+]([O-])Cc3ccccc3)c2c1 (stereo not given) | 2.65 µM (inactive) | 16.3 µM (inactive) | 19.4 µM (inactive) | 4.76 µM (inactive) | 2.07 µM (inactive) | 2.79 µM (inactive) | 25.5 µM (inactive) | 1.65 µM (inactive) | 20.3 µM (inactive) | 13.1 µM (inactive) | 15.7 µM (inactive) | 3.48 µM (inactive) | 14.2 µM (inactive) | 13.6 µM (inactive) | 17.8 µM (inactive) | 9.33 µM (inactive) | 7.62 µM (inactive) | 3.89 µM (inactive) | 20.5 µM (inactive) | 14.8 µM (inactive)
CN(C)c1ccc(/C=C(\NC(=O)c2ccccc2)C(=O)NC(Cc2c[nH]c3ccccc23)C(=O)O)cc1 (stereo not given) | > 100 µM (inactive) | > 100 µM (inactive) | > 100 µM (inactive) | > 100 µM (inactive) | > 100 µM (inactive) | > 100 µM (inactive) | > 100 µM (inactive) | 47.6 µM (inactive) | > 100 µM (inactive) | > 100 µM (inactive) | > 100 µM (inactive) | > 100 µM (inactive) | > 100 µM (inactive) | > 100 µM (inactive) | > 100 µM (inactive) | > 100 µM (inactive) | > 100 µM (inactive) | > 100 µM (inactive) | > 100 µM (inactive) | > 100 µM (inactive)
Cc1ccc(S(=O)(=O)CNC(=O)C(O)(O)C(F)(F)F)cc1 | > 100 µM (inactive) | > 100 µM (inactive) | > 100 µM (inactive) | > 100 µM (inactive) | > 100 µM (inactive) | > 100 µM (inactive) | > 100 µM (inactive) | > 100 µM (inactive) | > 100 µM (inactive) | > 100 µM (inactive) | > 100 µM (inactive) | > 100 µM (inactive) | > 100 µM (inactive) | > 100 µM (inactive) | > 100 µM (inactive) | > 100 µM (inactive) | > 100 µM (inactive) | > 100 µM (inactive) | > 100 µM (inactive) | > 100 µM (inactive)
COc1cc(C2C=C(c3ccccc3)Oc3cc4c(cc32)OCO4)cc(OC)c1OC (stereo not given) | 0.46 µM (active) | 0.565 µM (active) | 0.341 µM (active) | 15 µM (inactive) | 0.569 µM (active) | 0.43 µM (active) | 0.436 µM (active) | 0.327 µM (active) | 0.312 µM (active) | 0.324 µM (active) | 0.585 µM (active) | 0.502 µM (active) | 0.354 µM (active) | 0.0843 µM (active) | 0.124 µM (active) | 0.57 µM (active) | 0.675 µM (active) | 0.406 µM (active) | 0.449 µM (active) | 0.446 µM (active)
